The record followed here is ChEMBL document CHEMBL5506040, “Design of FK866-Based Degraders for Blocking the Nonenzymatic Functions of Nicotinamide Phosphoribosyltransferase” (J Med Chem, 2024).

Assay [1] concerns the target T1, Protein cereblon/Nicotinamide phosphoribosyltransferase (Homo sapiens) (UniProt P43490+Q96SW2). Put plainly: PROTAC activity at CRBN/NAMPT in human SK-OV-3 cells assessed as induction of intracellular NAMPT degradation at 0.5 uM incubated for 24 hrs by Western blot analysis relative to control. The class given is cell-based.
Assay [2] concerns the target T1, Protein cereblon/Nicotinamide phosphoribosyltransferase (Homo sapiens). Put plainly: PROTAC activity at CRBN/NAMPT in human SK-OV-3 cells assessed as induction of intracellular NAMPT degradation at 5 uM incubated for 24 hrs by Western blot analysis relative to control. The format is cell-based.
The test system of a further assay is SK-OV-3. Kind of assay: cells. The settings on record: Homo sapiens, SK-OV-3, 72 h.
The next assay has as its system MIA PaCa-2. Put plainly: cells. The settings on record: Homo sapiens, MIA PaCa-2, 72 h.
Assay [3] deals with T1, Protein cereblon/Nicotinamide phosphoribosyltransferase (Homo sapiens). Put plainly: PROTAC activity at CRBN/NAMPT in human SK-OV-3 cells assessed as induction of intracellular NAMPT degradation at 0.5 to 5 uM incubated for 24 hrs by Western blot analysis. The settings on record: dose 0.5-5 µM. The format is cell-based.

Activity calls are given as the source filed them. The calls are words filed in the database; no cut-off is given here.

T1 sequence (P43490 whole entry, looked up): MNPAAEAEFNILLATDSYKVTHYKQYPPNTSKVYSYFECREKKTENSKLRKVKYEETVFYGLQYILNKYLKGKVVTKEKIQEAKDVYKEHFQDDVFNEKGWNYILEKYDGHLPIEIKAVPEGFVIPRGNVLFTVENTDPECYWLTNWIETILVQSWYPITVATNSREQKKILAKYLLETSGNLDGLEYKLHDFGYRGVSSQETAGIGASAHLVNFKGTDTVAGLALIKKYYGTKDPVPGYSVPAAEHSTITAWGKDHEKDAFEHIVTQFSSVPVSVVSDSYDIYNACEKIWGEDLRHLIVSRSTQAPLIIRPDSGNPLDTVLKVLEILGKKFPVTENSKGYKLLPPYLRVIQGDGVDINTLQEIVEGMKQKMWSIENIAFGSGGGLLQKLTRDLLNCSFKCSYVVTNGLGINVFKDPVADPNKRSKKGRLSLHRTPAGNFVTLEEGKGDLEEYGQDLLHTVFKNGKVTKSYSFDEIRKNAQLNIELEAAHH
T1 sequence (Q96SW2 whole entry, looked up): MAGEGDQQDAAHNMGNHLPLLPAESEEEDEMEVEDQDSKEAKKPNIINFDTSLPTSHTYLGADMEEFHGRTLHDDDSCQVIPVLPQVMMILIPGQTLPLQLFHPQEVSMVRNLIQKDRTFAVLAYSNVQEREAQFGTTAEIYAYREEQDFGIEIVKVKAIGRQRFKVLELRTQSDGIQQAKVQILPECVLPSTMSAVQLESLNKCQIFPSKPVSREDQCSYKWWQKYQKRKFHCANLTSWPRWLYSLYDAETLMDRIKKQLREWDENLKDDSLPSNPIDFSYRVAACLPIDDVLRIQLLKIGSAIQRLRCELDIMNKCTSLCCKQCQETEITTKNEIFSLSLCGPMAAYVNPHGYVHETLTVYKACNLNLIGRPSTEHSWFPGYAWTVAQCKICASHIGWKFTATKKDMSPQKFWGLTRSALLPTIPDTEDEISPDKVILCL
Description for MIA PaCa-2: Cytotoxicity against human MIA PaCa-2 cells assessed as inhibition of cell growth incubated for 72 hrs by MTT assay
Description for SK-OV-3: Cytotoxicity against human SK-OV-3 cells assessed as inhibition of cell growth incubated for 72 hrs by MTT assay

For `O=C(/C=C/c1cccnc1)NCCCCC1CCN(C(=O)c2ccc(NC(=O)COCCOCCNc3cccc4c3C(=O)N(C3CCC(=O)NC3=O)C4=O)cc2)CC1` (stereo not given), the Activity in assay [1] and in assay [2] was 0% in each case. Also, the IC50 with SK-OV-3 and in the assay on MIA PaCa-2 was 4 nM each time.

With `O=C(/C=C/c1cccnc1)NCCCCC1CCN(C(=O)c2ccc(C(=O)N3CCC4(CC3)CN(c3cccc5c3C(=O)N(C3CCC(=O)NC3=O)C5=O)C4)cc2)CC1` (stereo not given), the outcome in assay [3] was inactive. In addition, the IC50 in the assay with SK-OV-3 and in the assay on MIA PaCa-2 was 4 nM throughout.

`O=C(/C=C/c1cccnc1)NCCCCC1CCN(C(=O)c2ccc(C(=O)N3CCC4(C3)CN(c3cccc5c3C(=O)N(C3CCC(=O)NC3=O)C5=O)C4)cc2)CC1` (stereo not given): the outcome in assay [3] was inactive. The IC50 in the assay on SK-OV-3 and with MIA PaCa-2 was 4 nM in each case.

For the compound `O=C(/C=C/c1cccnc1)NCCCCC1CCN(C(=O)c2ccc(C(=O)NCCCCCNc3cccc4c3C(=O)N(C3CCC(=O)NC3=O)C4=O)cc2)CC1` (stereo not given), the Activity in assay [1] and in assay [2] was 0% in each case. The IC50 in the assay with SK-OV-3 and with MIA PaCa-2 was 4 nM in each case.

In the case of `O=C(/C=C/c1cccnc1)NCCCCC1CCN(C(=O)c2ccc(NC(=O)COCCOCCOCCNc3cccc4c3C(=O)N(C3CCC(=O)NC3=O)C4=O)cc2)CC1` (stereo not given), the Activity in assay [1] and in assay [2] was 0% each time. For the same compound, the IC50 with SK-OV-3 and in the assay on MIA PaCa-2 was 4 nM in each case.

With `O=C(/C=C/c1cccnc1)NCCCCC1CCN(C(=O)c2ccc(C(=O)N3CCC(C(=O)N4CCN(c5cccc6c5C(=O)N(C5CCC(=O)NC5=O)C6=O)CC4)CC3)cc2)CC1` (stereo not given), the outcome in assay [3] was inactive. The half-maximal inhibitory concentration (IC50) with SK-OV-3 and with MIA PaCa-2 was 4 nM in each case.

Take `O=C(/C=C/c1cccnc1)NCCCCC1CCN(C(=O)c2ccc(C(=O)N3CC4(CCN(c5cccc6c5C(=O)N(C5CCC(=O)NC5=O)C6=O)CC4)C3)cc2)CC1` (stereo not given): the result in assay [3] was inactive. The half-maximal inhibitory concentration (IC50) in the assay on SK-OV-3 and in the assay with MIA PaCa-2 was 4 nM each time.

For `O=C(/C=C/c1cccnc1)NCCCCC1CCN(C(=O)c2ccc(NC(=O)CCCCN3CCN(c4cccc5c4C(=O)N(C4CCC(=O)NC4=O)C5=O)CC3)cc2)CC1` (stereo not given), the outcome in assay [3] was inactive. Moreover, the IC50 in the assay on SK-OV-3 and with MIA PaCa-2 was 4 nM throughout.

Take `O=C(/C=C/c1cccnc1)NCCCCC1CCN(C(=O)c2ccc(C(=O)NCc3cn(CCOCCOCCOCCOCCNc4cccc5c4C(=O)N(C4CCC(=O)NC4=O)C5=O)nn3)cc2)CC1` (stereo not given): the values for the Activity in assay [1] and in assay [2] were 40% and 27%, respectively. Further, the IC50 with SK-OV-3 and in the assay with MIA PaCa-2 was 4 nM each time.

For the compound `O=C(/C=C/c1cccnc1)NCCCCC1CCN(C(=O)c2ccc(C(=O)N3CCN(Cc4ccc(CNc5cccc6c5C(=O)N(C5CCC(=O)NC5=O)C6=O)cc4)CC3)cc2)CC1` (stereo not given), the outcome in assay [3] was inactive. Also, the IC50 in the assay with SK-OV-3 and in the assay with MIA PaCa-2 was 4 nM throughout.

Consider `O=C(/C=C/c1cccnc1)NCCCCC1CCN(C(=O)c2ccc(C(=O)NCCCCCc3cccc4c3CN(C3CCC(=O)NC3=O)C4=O)cc2)CC1` (stereo not given), for which the Activity in assay [1] and in assay [2] was 0% throughout. Besides, the IC50 in the assay on SK-OV-3 and in the assay on MIA PaCa-2 was 4 nM each time.

As for `O=C(/C=C/c1cccnc1)NCCCCC1CCN(C(=O)c2ccc(C(=O)N3CCC(CC(=O)Nc4cccc5c4C(=O)N(C4CCC(=O)NC4=O)C5=O)CC3)cc2)CC1` (stereo not given), in assay [3], the result was inactive. Further, the IC50 with SK-OV-3 and in the assay on MIA PaCa-2 was 4 nM each time.

Take `O=C(/C=C/c1cccnc1)NCCCCC1CCN(C(=O)c2ccc(C(=O)N3CCN(c4cccc5c4C(=O)N(C4CCC(=O)NC4=O)C5=O)CC3)cc2)CC1` (stereo not given): the outcome in assay [3] was inactive. The IC50 in the assay on SK-OV-3 and in the assay on MIA PaCa-2 was 4 nM each time.

On to `O=C(/C=C/c1cccnc1)NCCCCC1CCN(C(=O)c2ccc(C(=O)N3CCC4(CCN(c5cccc6c5C(=O)N(C5CCC(=O)NC5=O)C6=O)C4)C3)cc2)CC1` (stereo not given), for which the result in assay [3] was inactive. For the same compound, the IC50 in the assay with SK-OV-3 and in the assay with MIA PaCa-2 was 4 nM in each case.

In the case of `O=C(/C=C/c1cccnc1)NCCCCC1CCN(C(=O)c2ccc(C(=O)NCc3cn(CCOCCOCCOCCOCCOCCNc4cccc5c4C(=O)N(C4CCC(=O)NC4=O)C5=O)nn3)cc2)CC1` (stereo not given), the Activity was 51% in assay [1] and 52% in assay [2]. For the same compound, the IC50 with SK-OV-3 and with MIA PaCa-2 was 4 nM in each case.

For `O=C(/C=C/c1cccnc1)NCCCCC1CCN(C(=O)c2ccc(NC(=O)CCOCCOCCOCCOCCNc3cccc4c3C(=O)N(C3CCC(=O)NC3=O)C4=O)cc2)CC1` (stereo not given), the Activity in assay [1] and in assay [2] was 0% in each case. The concentration for half-maximal inhibition (IC50) in the assay on SK-OV-3 and in the assay with MIA PaCa-2 was 4 nM throughout.

Turning to `O=C(/C=C/c1cccnc1)NCCCCC1CCN(C(=O)c2ccc(NC(=O)CCCN3CCN(c4cccc5c4C(=O)N(C4CCC(=O)NC4=O)C5=O)CC3)cc2)CC1` (stereo not given), the outcome in assay [3] was inactive. Besides, the IC50 in the assay with SK-OV-3 and in the assay on MIA PaCa-2 was 4 nM throughout.

Regarding `O=C(/C=C/c1cccnc1)NCCCCC1CCN(C(=O)c2ccc(C(=O)NCCCCNc3cccc4c3C(=O)N(C3CCC(=O)NC3=O)C4=O)cc2)CC1` (stereo not given), the Activity in assay [1] amounted to 0%; in assay [2], 22%. For the same compound, the IC50 in the assay with SK-OV-3 and in the assay on MIA PaCa-2 was 4 nM throughout.

For the compound `O=C(/C=C/c1cccnc1)NCCCCC1CCN(C(=O)c2ccc(C(=O)NCc3cn(CCOCCOCCNc4cccc5c4C(=O)N(C4CCC(=O)NC4=O)C5=O)nn3)cc2)CC1` (stereo not given), the Activity in assay [1] and in assay [2] was 0% each time. For the same compound, the IC50 in the assay on SK-OV-3 and with MIA PaCa-2 was 4 nM throughout.

As for `O=C(/C=C/c1cccnc1)NCCCCC1CCN(C(=O)c2ccc(C(=O)NCCCNc3cccc4c3C(=O)N(C3CCC(=O)NC3=O)C4=O)cc2)CC1` (stereo not given), the Activity was found to be 29% in assay [1] and 0% in assay [2]. Further, the IC50 in the assay on SK-OV-3 and in the assay with MIA PaCa-2 was 4 nM throughout.

As for `O=C(/C=C/c1cccnc1)NCCCCC1CCN(C(=O)c2ccc(C(=O)NCc3cn(CCOCCNc4cccc5c4C(=O)N(C4CCC(=O)NC4=O)C5=O)nn3)cc2)CC1` (stereo not given), the results for the Activity in assay [1] and in assay [2] were 25% and 30%, respectively. Further, the IC50 in the assay with SK-OV-3 and in the assay with MIA PaCa-2 was 4 nM throughout.

Consider `O=C(/C=C/c1cccnc1)NCCCCC1CCN(C(=O)c2ccc(NC(=O)COCCOCCOCCOCCNc3cccc4c3C(=O)N(C3CCC(=O)NC3=O)C4=O)cc2)CC1` (stereo not given), for which the Activity in assay [1] and in assay [2] was 0% throughout. In addition, the IC50 in the assay with SK-OV-3 and in the assay on MIA PaCa-2 was 4 nM throughout.

With `O=C(/C=C/c1cccnc1)NCCCCC1CCN(C(=O)c2ccc(C(=O)NCCNc3cccc4c3C(=O)N(C3CCC(=O)NC3=O)C4=O)cc2)CC1` (stereo not given), the Activity in assay [1] was determined as 0%; in assay [2] it was 11%. Further, the IC50 with SK-OV-3 and with MIA PaCa-2 was 4 nM in each case.

Regarding `O=C(/C=C/c1cccnc1)NCCCCC1CCN(C(=O)c2ccc(C(=O)NCCCCCCNc3cccc4c3C(=O)N(C3CCC(=O)NC3=O)C4=O)cc2)CC1` (stereo not given), the Activity in assay [1] and in assay [2] was 0% throughout. In addition, the IC50 with SK-OV-3 and in the assay with MIA PaCa-2 was 4 nM throughout.

Turning to `O=C(/C=C/c1cccnc1)NCCCCC1CCN(C(=O)c2ccc(C(=O)NCc3cn(CCOCCOCCOCCNc4cccc5c4C(=O)N(C4CCC(=O)NC4=O)C5=O)nn3)cc2)CC1` (stereo not given), the values for the Activity in assay [1] and in assay [2] were 34% and 20%, respectively. In addition, the IC50 in the assay with SK-OV-3 and with MIA PaCa-2 was 4 nM in each case.
